In patent publication US20130157261A1, “Compositions and Methods for Quantitative Histology, Calibration of Images in Fluorescence Microscopy, and ddTUNEL Analyses” (The Methodist Hospital Research Institute, priority 2011, published 2013):

What was measured:
[1] = tested on: normal human astrocytes (NHA); details: ethylmercury treatment (FIG. 21)
Experimental: Normal human astrocytes (NHA) were obtained from Lonza (Walkersville, Md., USA) and grown subject to their recommendations. NHA were grown to confluency in Astrocyte Cell Basal Medium supplemented with 3% FBS, Glutamine, Insulin, fhEGF, GA-1000 and ascorbic acid in 16-well Lab-Tek slide chambers (Nalge Nunc, Rochester, N.Y., USA), in a total volume of 240 μL.
NHA were incubated for 1 hour with probes before fixation. Fixation in buffered paraformaldehyde (PFA) was performed in two stages. Firstly, a 50-4 aliquot of ice-cold 8% PFA was added to each well, then gently aspirated and the wells were twice washed with ice-cold 2% PFA and then allowed to completely fix at 4° C. After fixation, cells were washed twice in 1×PBS (Thermo Fisher Scientific, Rockford, Ill., USA). The tanks were then removed from the slides, the well area covered with Fluoromount-G (SouthernBiotech, Ill., USA), cover-slipped and sealed with nail varnish.
3% FCS was present in the NHA medium throughout the time-course. To generate the time-course shown in FIG. 17A and FIG. 17B, NHA were exposed to Mitotracker, H2DCFAM and Hoechst at t=0.

[2] = tested on: U87 cells; assay: in situ ligation of blunt-ended and 3′-T-OH overhanging oligonucleotide probes (DNA breaks); assay type: cell-based, human; details: for number of 3′-T-OH overhang ends / overhanging cuts / number of blunt-ended breaks: 24 hrs after treatment at LD50 concentration; for blebbing of treated cells: microscopy
Experimental: U87, human glioblastoma, cells were obtained from the American TypeCulture Collection (ATCC) Manassas, Va. and grown as recommended in DMEM with penicillin/streptomycin and 10% FBS. Following 3 weeks of growth and splitting cells were plated into slide chambers (Lab-Tek Nalge Nunc International, Rochester, N.Y., USA) at 2×10^5 cells per mL, and were allowed to grow thereon for 24 hrs until confluence was reached.
Twenty-four hrs after treatment, all cells were fixed with 4% PFA for one hr and washed 3× in 0.1 M PBS, incubated in 0.1% Triton-X100® for 6 min and then washed in 0.1 M PBS buffer. Each slide was assayed for double-strand DNA blunt-ended and overhanging 3′-OH ends, and counterstained for DNA with YO-PRO-1®.
The 3′-OH T specific overhang and blunt-ended DNA probes, shown in FIG. 2A and FIG. 2B, were ligated to the known oligonucleotide standard phantoms the amine apex oligoneuleotides, or alternatively, to fixed permeabilized U87 cells. The sections were pre-incubated in the ligation buffer without the probe (66 mM Tris-HCl, pH 7.5, 5 mM MgCl2, 0.1 mM dithioerythritol, 1 mM ATP, and 15% polyethylene glycol-8000) to ensure even saturation. The buffer was aspirated, and the full ligation mix containing the ligation buffer with probe, 35 μg/μL, and 0.5 U/μL T4 DNA ligase (New England BioLabs; Ipswich, Mass., USA) was applied to the sections, which were then incubated in a humidified box overnight.
The 3′-OH T-specific overhanging- and blunt-ended DNA probes shown in FIG. 11B were ligated to oligonucleotide standard phantoms, mammary gland or to fixed, permeabilized U87 cells. The sections were pre-incubated with ligation buffer in the absence of the probe (66 mM-Tris HCl, pH 7.5, 5 mM MgCl2, 0.1 mM dithioerythritol, 1 mM ATP, and 15% polyethylene glycol-8000) to ensure even saturation. The buffer was aspirated and the full ligation mix [ligation buffer+probe (35 μg/μL) and T4 DNA ligase (0.5 U/μL)] was applied to the sections, which were then incubated in a humidified box overnight. Controls consisted of probe-ligated phantoms, which were then incubated with either EcoRI or BamHI, in the appropriate buffer for 4 hrs, washed, cover-slipped using Fluoromount-G™ (SouthernBiotech), and then sealed with nail varnish.
(§1) Human glioblastoma cells (U87) (American Type Culture Collection, Manassas, Va., USA), and grown as recommended in DMEM with penicillin/streptomycin and 10% FBS. Following 3-weeks' growth and splitting, 5 mL of cells were plated into microscope slide chambers (Lab-Tek) at […], and were allowed to grow in the slide chambers for 24 hrs, until they became confluent. […] 24 hrs after treatment, all cells were fixed with 2% PFA for 1 hr, washed 3× in 0.1 M PBS, then incubated in 0.1% Triton X-100® for 6 min and finally washed in 0.1 M PBS buffer. Each slide was assayed for double-strand blunt (red) and overhanging (blue) DNA damage, and counterstained for DNA with YO-PRO-1® (green) or for γH2A.X with an FITC-labeled IgG antibody (green).

[3] = tested on: U87 cells; assay: γ-H2A.X histone labelling with FITC-labeled antibody; assay type: cell-based, human; details: 24 hrs
Experimental: FITC-labeled Anti-H2A.X histone monoclonal antibody (BioLegend, San Diego, Calif.) was used as an internal control for DNA breaks, at a 1/50 dilution after the samples were blocked with 10% horse serum.
as §1
After incubation with 10% horse sera and washing, Ser139-phosphorylated H2A.X histone was imaged using an FITC-labeled monoclonal antibody (Biolegend, San Diego, Calif., USA) (1:500) following the methods of the manufacturer. Immune cell marker CD3ε was imaged using an FITC-labeled monoclonal antibody (Santa Cruz Biotechnologies, Santa Cruz, Calif.) (also at 1:500) as recommended by the manufacturer.

[4] = tested on: U87 cells; assay: ddTUNEL assay (3′OH DNA ends); assay type: cell-based, human; details: for ddTUNEL: approximate concentration of the probe in the cells: U87 cells following treatment, nominal path length of 6 μm, control 3.7
Experimental: ddTUNEL reaction buffer was prepared fresh daily by diluting a previously-frozen) stock solution of ddTUNEL buffer 1:5, and solution of cobalt chloride 1:25.
Stock reaction buffer, 5×: 125 mM Tris-HCl, 1 M sodium cacodylate, 1.25 mg/mL BSA, pH 6.6. Stock reaction CoCl2 solution, 25×: 25 mM cobalt chloride.
1. Wash samples twice in ddTUNEL reaction buffer for 10 min each.
2. Incubate sections in ddTUNEL reaction solution for 1-2 h at 37-40° C. in humidified chamber or overnight at room temperature.
5. Incubate with fluorescently labeled avidin or streptavidin ([…]) for 30 min.
(§2) U87 human glioblastoma cells were grown in DMEM with penicillin/streptomycin and 10% fetal bovine serum (FBS) (Invitrogen). Following 3-weeks' growth, 5 mL of cells were plated into slide chambers (Lab-Tek, Nalge Nunc International, Rochester, N.Y., USA) at 2×10^5 cells per mL, and grown for 24 hrs at 37° C. in a 5% CO2 incubator. […] 24-hrs' later, cells were fixed with 2% PFA, then permeabilized in 0.1% Triton X-100® as described above.

[5] = tested on: U87 cells; assay: LD50 of stressors on the cells over a 24-hr incubation; assay type: cell-based, human
[6] = tested on: U87 cells; assay: Fpg-ddTUNEL assay (oxidized/acylated DNA bases), with or without NaBH4 reduction; assay type: cell-based, human; details: for Fpg-ddTUNEL: approximate concentration of the probe in the cells: U87 cells following treatment, nominal path length of 6 μm, control 0.9; for effect of NaBH4 reduction on the Fpg-ddTUNEL signal / oxo-base levels: ethanolic NaBH4
Experimental: Each sample was incubated in 25 mM sodium borohydride in 70% ethanol for 30 min. The sample was then washed twice in 0.1 M PBS. Typically, a slide box was employed, and it was half-filled with reducing solution so that half the sample(s) on the slide were reduced.
The sample was washed twice in 10 mM HEPES, 10 mM NaCl, 2 mM EDTA and 0.1% BSA and then ≈50 μL of the same buffer containing 100 U/mL of Fpg was applied to each of the sections, which were then incubated in a humidified box for ≧4 hr. The sample was washed twice in 100 mM PBS, and then twice in NEBuffer3. Approximately 50 μL of the same buffer containing 100 U/mL of CIAP was then applied to each section, and incubated for ≧2 hrs.
1. After completing both ddTUNEL and CIAP-ddTUNEL, each sample is washed twice in Fpg-buffer (Affymetrix) for 10 min.
2. Samples are then incubated in 100 U/mL Fpg (Affymetrix) in Fpg Buffer for 2 hr at 37° C. (or, alternatively, overnight at room temperature).
Following ddTUNEL and CIAP-ddTUNEL, capping 3′OH/3′PO4 ends, samples were washed twice in 10 mM HEPES, 10 mM NaCl, 2 mM EDTA and 0.1% BSA and then ≈50 μL of the same buffer containing 100 U/mL of Fpg was applied to each of the sections, and then incubated in a humidified box ≧4 hrs. Each sample was washed twice in 100 mM PBS, twice in NEBuffer3 and ≈50 μL of the same buffer containing 100 U/mL of CIAP was applied to each section and incubated for ≧2 hr; samples then underwent a third round of ddTUNEL.
as §2

SMILES: C[CH2][Hg] [ethylmercury]
- formation of dichlorofluorescein from H2DCF-AM greater than superoxide/carbonyl formation [1]: approximately 20%

SMILES: O=NN(CCCl)C(=O)NCCCl [Carmustine, N,N′-bis(2-chloroethyl)-N-nitroso-urea]
- number of 3′-T-OH overhang ends / overhanging cuts [2]: ~350 per million base pairs
- number of blunt-ended breaks [2]: approximately 900 per million base pairs
- change in blunt-ended breaks ([2]; 24 hrs, Example 2): massive increases
- increase in levels of overhangs ([2]; 24 hrs, Example 2): more than an order of magnitude
- blebbing of treated cells ([2]; 24 hrs): formation of small blebs
- difference in cytosolic γ-H2A.X levels, carmustine-treated vs temozolomide-treated cells [3]: 10 fold
- transfer of γ-H2A.X into the cytosol [3]: transfer of γ-H2A.X into the cytosol
- ddTUNEL: approximate concentration of the probe in the cells [4]: 22.8 µM
- increase in ddTUNEL ([4]; U87 cells, vs control): six-fold
- LD50 [5]: 2.5 µM
- Fpg-ddTUNEL: approximate concentration of the probe in the cells [6]: 5.2 µM
- effect of NaBH4 reduction on the Fpg-ddTUNEL signal / oxo-base levels ([6]; U87 cells): unaltered by reduction
- increase in Fpg-ddTUNEL ([6]; U87 cells, vs control): six-fold

SMILES: OO [H2O2, hydrogen peroxide]
- blebbing of treated cells ([2]; 24 hrs): formation of blebs
- ddTUNEL: approximate concentration of the probe in the cells [4]: 9.4 µM
- LD50 [5]: 1000 µM
- Fpg-ddTUNEL: approximate concentration of the probe in the cells [6]: 4.5 µM
- effect of NaBH4 reduction on the Fpg-ddTUNEL signal / oxo-base levels ([6]; U87 cells): redox sensitive

SMILES: C[n+]1ccc(-c2cc[n+](C)cc2)cc1 [Paraquat]
- blebbing of treated cells ([2]; 24 hrs): no blebbing apparent
- blebbing of treated cells ([2]; 24 hrs, listed as paraquat): no evidence of blebbing
- share of γ-H2AX found in the cytosol [3]: 65%
- ddTUNEL: approximate concentration of the probe in the cells [4]: 37.2 µM
- LD50 [5]: 300 µM
- Fpg-ddTUNEL: approximate concentration of the probe in the cells [6]: 6.3 µM

SMILES: CCc1c2c(nc3ccc(OC(=O)N4CCC(N5CCCCC5)CC4)cc13)-c1cc3c(c(=O)n1C2)COC(=O)[C@]3(O)CC [Irinotecan, (S)-4,11-diethyl-3,4,12,14-tetrahydro-4-hydroxy-3,14-dioxo1H-pyrano[3′,4′:6,7]-indolizino[1,2-b]quinolin-9-yl-[1,4′bipiperidine]-1′-carboxylate]
- number of 3′-T-OH overhang ends / overhanging cuts [2]: 119 per million base pairs
- number of blunt-ended breaks [2]: 285 per million base pairs
- difference in overhang breaks vs control cells ([2]; 24 hrs, Example 2): greater than 50 ×
- increase in number of blunt-ended breaks ([2]; vs control cells (FIG. 7)): more than 50%
- increase in number of overhanging breaks ([2]; vs control cells (FIG. 7)): ~3 fold
- ddTUNEL: approximate concentration of the probe in the cells [4]: 7.4 µM
- Fpg-ddTUNEL: approximate concentration of the probe in the cells [6]: 1.7 µM
- effect of NaBH4 reduction on the Fpg-ddTUNEL signal / oxo-base levels ([6]; U87 cells): unaltered by reduction

SMILES: Cn1nnc2c(C(N)=O)ncn2c1=O [Temozolomide]
- number of 3′-T-OH overhang ends / overhanging cuts [2]: ~350 per million base pairs
- number of blunt-ended breaks [2]: approximately 900 per million base pairs
- difference in levels of blunt-end breaks vs control cells ([2]; 24 hrs, Example 2): greater than 30 ×
- ddTUNEL: approximate concentration of the probe in the cells [4]: 8.7 µM
- LD50 [5]: 25 µM
- Fpg-ddTUNEL: approximate concentration of the probe in the cells [6]: 13.7 µM
